Assay results taken from patent publication US7485632B2, “Cephalosporins” (Nabriva Therapeutics Forschungs GmbH, priority 2002, dated 2009).
Values after ≈ are worked out from the molar mass of the structure shown.

How the values were obtained:
Format in all cases: cell-based
[1] = tested on: Staphylococcus aureus (MSSA); experiment: Agar Dilution Test (NCCLS), MIC; settings: against Staphylococcus aureus (MSSA)
[2] = tested on: Streptococcus pneumoniae; experiment: Agar Dilution Test (NCCLS), MIC; settings: against Streptococcus pneumoniae
[3] = tested on: Klebsiella; experiment: Agar Dilution Test (NCCLS), MIC; settings: against Klebsiella
[4] = tested on: Pseudomonas aeruginosa; experiment: Antibacterial activity
[5] = tested on: Klebsiella pneumoniae; experiment: Agar Dilution Test (NCCLS), MIC; settings: against Klebsiella pneumoniae

For `CN(/N=C/C1=C(C(=O)O)N2C(=O)[C@@H](NC(=O)/C(=N\OCF)c3nsc(N)n3)C2SC1)C(=N)N[C@H]1CC[C@H](N)CC1` (stereo partly drawn) [Example 1, 3-{(E)[[1-trans-(4-Amino-cyclohexylamino)-iminomethyl]-methylhydrazono]methyl}-7-{[(5-amino-1,2,4-thiadiazol-3-yl)-(Z)-(fluoromethoxyimino)-acetyl]amino}-3-cephem-4-carboxylic acid], the MIC [1] was 0.05 to 0.2 µg/mL (≈ 0.0837 to 0.335 µM), the MIC [2] was about 0.0125 µg/mL (≈ 0.0209 µM) and the MIC [3] was 0.0125 to 0.8 µg/mL (≈ 0.0209 to 1.34 µM). The “activity against Pseudomonas aeruginosa” value [4] was “shows activtiy” and the MIC [5] was about 0.0125 µg/mL (≈ 0.0209 µM).
